Each compound was assayed against human norepinephrine transporter (Homo sapiens (Human), UniProt P23975) (assay: Human NET (norepinephrine transporter) uptake assay). Conditions: comparison in words, used to assign configuration.
Type: cell-based
Procedure: This protocol was designed to measure inhibition of uptake by the human norepinephrine transporter. […] The Assay Buffer (AB) was 1×HBSS and 0.02 M HEPES.
The HEK293F cells were transfected with the human norepinephrine transporter and frozen in 1 mL aliquots at about 1E+07 cells/mL. On the day of the experiment, the cells were removed from −80° C. or liquid nitrogen and thawed in a room temperature water bath. The cells were dilute to about 1-2E+06 with Freestyle medium. A 1 mL sample (1:2 dilution) was prepared, and the cells were counted. The cells were spun at 1100 rpm for 5 minutes, and the medium was aspirated off. The cells were resuspend in medium at 1.5E+06 cells/mL for about 60,000 cells per well. 40 μL of cells were dispensed per well in the Biocoat plates. The plates were spun at 1100 rpm for 1 minute to improve homogeneity of the cell layer and were incubated at 37° C. for a minimum of 3 hours.
12 μL of test compound (10 mM) in DMSO was added to the wells, and nomifensine was used as a control. […] The neurotransmitter transporter dye was prepared in AB prior to use.
Due to the proprietary nature of the dye formulation, all dye concentrations were expressed as a percentage of the vendor-recommended dye reconstitution. Thus, the above calculations were valid when both [dye] and Km were expressed in the same units (%). Compounds were tested in triplicate (n=3).

Sequence of human norepinephrine transporter (P23975 whole entry): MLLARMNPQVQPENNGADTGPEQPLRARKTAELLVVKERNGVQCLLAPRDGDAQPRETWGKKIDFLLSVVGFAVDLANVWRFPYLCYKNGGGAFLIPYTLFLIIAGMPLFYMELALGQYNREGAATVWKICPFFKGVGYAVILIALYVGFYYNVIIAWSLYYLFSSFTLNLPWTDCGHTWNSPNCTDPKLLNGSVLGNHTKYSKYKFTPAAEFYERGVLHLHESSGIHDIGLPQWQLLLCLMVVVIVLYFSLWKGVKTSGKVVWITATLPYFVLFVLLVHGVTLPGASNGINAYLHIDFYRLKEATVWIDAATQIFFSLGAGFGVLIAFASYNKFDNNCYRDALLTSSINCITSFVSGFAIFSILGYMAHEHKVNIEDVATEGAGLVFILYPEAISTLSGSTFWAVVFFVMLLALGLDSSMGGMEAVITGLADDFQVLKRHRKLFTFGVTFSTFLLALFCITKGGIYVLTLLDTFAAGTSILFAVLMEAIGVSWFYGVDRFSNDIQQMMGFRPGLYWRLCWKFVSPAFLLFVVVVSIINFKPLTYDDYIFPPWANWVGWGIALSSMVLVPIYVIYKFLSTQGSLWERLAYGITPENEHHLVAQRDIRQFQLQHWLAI

Row | SMILES | potency at hNET relative to the other enantiomer or epimer
1 | CNC[C@H](c1ccc2ccccc2c1)[C@H](O)c1cc(F)cc(F)c1 (single isomer, unassigned) [compound 37] | more potent
2 | CNC[C@@H](c1ccc(Cl)c(Cl)c1)[C@@H](O)c1cccc([S+](C)[O-])c1 (single isomer, unassigned) [compound 116] | equipotent
3 | O[C@@H](c1ccccc1)[C@@H](CNCC(F)(F)F)c1ccc2ccccc2c1 (single isomer, unassigned) [compound 130] | equipotent
4 | CNC[C@H](c1ccc(Cl)c(Cl)c1)[C@H](O)c1cccc(N(C)C)c1 (single isomer, unassigned) [compound 168] | similar
5 | CNCC(Cc1ccccc1CO)c1ccc2ccccc2c1 (stereo not shown) [compound 2] | more potent
6 | CNC[C@H](c1ccc(Cl)c(Cl)c1)[C@H](O)c1ccccc1 [compound 10] | more potent
7 | CNC[C@H](c1ccc2ccccc2c1)[C@H](O)c1ccccc1F [compound 15] | more potent
8 | CNCC(c1ccc(Br)c(Cl)c1)[C@H](O)c1ccccc1 (stereo partly shown) [compound 16] | more potent
9 | CNC[C@H](c1ccc(Br)c(Cl)c1)[C@@H](O)c1ccccc1 [compound 21] | more potent
10 | CNC[C@H](c1ccc2ccccc2c1)[C@H](O)c1ccc(Cl)nc1 [compound 26] | higher inhibitory activity
11 | CNCC(CCc1ccccc1)[C@@H](O)c1ccccc1 (stereo partly shown) [compound 27] | more potent
12 | CNC[C@H](c1ccc2ccccc2c1)[C@H](O)c1ccccc1C [compound 28] | more potent
13 | CNCC(Cc1ccccc1C)c1ccc2ccccc2c1 (stereo not shown) [compound 39] | more potent
14 | C[C@](CN)(Cc1cccnc1)c1ccc2ccccc2c1 [compound 42] | more potent
15 | CNC[C@@H](Cc1ccc(C)s1)c1ccc2ccccc2c1 [compound 44] | higher potency
16 | CNCC(Cc1cccnc1)c1ccc2ccccc2c1 (stereo not shown) [compound 48] | more potent
17 | CNC[C@@H](c1ccc2ccccc2c1)[C@@H](O)c1cccnc1 [compound 49] | more potent
18 | CNCC(Cc1ccccc1O)c1ccc2ccccc2c1 (stereo not shown) [compound 52] | more potent
19 | CNC[C@H](c1ccc(OC)c(C)c1)[C@H](O)c1cccnc1 [compound 55] | more potent
20 | CNCC(Cc1ccccc1OC)c1ccc2ccccc2c1 (stereo not shown) [compound 57] | more potent
21 | CNC[C@H](c1ccc2ccccc2c1)[C@@H](O)c1ccccc1F [compound 60] | more potent
22 | CNC[C@H](c1ccc(Cl)c(Cl)c1)[C@@H](O)c1ccccc1[N+](=O)[O-] [compound 65] | more potent
23 | CNCC(CCc1ccccc1)[C@H](O)c1ccccc1 (stereo partly shown) [compound 66] | less potent
24 | CNC[C@H](c1ccc(Cl)c(Cl)c1)[C@@H](O)c1ccccc1 [compound 70] | more potent
25 | CNC[C@H](c1ccc(Cl)c(Cl)c1)[C@H](O)c1cccc(Br)c1 [compound 76] | more potent
26 | CNC[C@@H](c1ccc2ccccc2c1)[C@@H](O)c1ccccc1F [compound 78] | less potent
27 | CNCC(C[C@H](O)c1ccccc1)c1ccc2ccccc2c1 (stereo partly shown) [compound 85] | more potent
28 | CNCC(Cc1ccccc1CO)c1ccc2ccccc2c1 (stereo not shown) [compound 90] | less potent

— patent US9944618B2, “Inhibiting neurotransmitter reuptake” (Mayo Foundation for Medical Education and Research, priority 2013, dated 2018)
